# Data published in patent publication US9593307B2, “Defined media for expansion and maintenance of pluripotent stem cells” (Janssen Biotech, Inc., priority 2012, dated 2017).
# How the values were obtained:
# [1] = test system: human embryonic stem cell line H1; assay: Real-time PCR of pluripotency and differentiation genes; type: cell-based; conditions: passage 3, Example 5
# Text: After passage 5, only IH-1 and IH-3 were further compared to the cells cultured in mTeSR®1 media (Catalog No. 05850, Stem-Cell Technologies, Inc., Vancouver BC, Canada). […]
# Approximately 1% of the cells were SOX17+ (FIG. 7D) and ˜85% of the cells were FOXA2+ (FIG. 7E). FIG. 8A to FIG. 8F show images of immunofluorescence staining of H1 cells cultured in IH-3 media for 18 passages. These images illustrate that a significant number of OCT4 and SOX2 positive cells were also FOXA2+. H1 cells cultured in IH3 media had acquired a phenotype where at least 70% of the cells were OCT4+ NANOG+ SOX2+ KI-67+ ZFP42− and FOXA2+. This represents a population of cells not yet described in the art.
# [2] = test system: human embryonic stem cell line H1; assay: Culture in test media: growth and colony morphology (phase-contrast); type: cell-based; conditions: Example 5
# Experimental: Cells of the human embryonic stem cell line H1 (at passage 35 to passage 40), cultured on MATRIGEL™ (Catalog No. 354230, 1:30 dilution; Corning Incorporated, Corning, N.Y.) coated dishes in mTeSR®1 media (Catalog No. 05850, Stem-Cell Technologies, Inc., Vancouver BC, Canada) and passaged using ethylenediaminetetraacetic acid (“EDTA”), were used as the starting population to test various media compositions. Cells were passaged as small colonies using 5-10 min EDTA (Catalog No. #170711E, Lonza Walkersville, Inc., Walkersville, Md.) treatment at room temperature. Cultures were routinely split in a ratio of 1:6 to 1:10 at each passage. Table I lists the initial media formulations tested for their ability to proliferate H1 cells while maintaining their undifferentiated morphology and pluripotency markers.
# Media IH-1, IH-3, and IH-6 were selected for further evaluation.
# [3] = day 4 following seeding, IH-3-2 media with the given BSA
# [4] = passage 3, IH-3-2 media with the given BSA
substance,measurement,setting,value
"Sigma BSA: 2% Sigma BSA (catalog No. A2153; Lot: 061M1804V, Sigma Aldrich) used to supplement IH-3-2 media","Markers associated with a differentiated cell (AFP, MIXL1, T (BRY); PCR)",[1],significant upregulation
same,Cell morphology,[2]; [3],morphological evidence of differentiated cells
same,Cell morphology,[2]; [4],morphological evidence of differentiated cells
same,Confluency of cells,"[2]; passage 3, compared to fatty acid free BSA",significant drop in confluency
"fatty acid-free BSA: fatty-acid free BSA (Catalog No. 7500804; Lot: 11G54001, LAMPIRE Biological Laboratories) in IH-3-2 media",Cell morphology,[2]; [3],no gross differentiated cell morphology evident
same,Cell morphology,[2]; [4],no gross differentiated cell morphology evident
